In patent US20260092061A1, “COMPOUNDS FOR TARGETED PROTEIN DEGRADATION” (Amphista Therapeutics Limited, priority 2022, published 2026):
Read-outs that look alike come from different tables or passages of the source.

Legend:
BRD9 [1] = biological target: T1, BRD9 (Homo sapiens, UniProt Q9H8M2); experiment: Degradation of BRD9 (IF), immunofluorescence in MV4-11 cells, 24 hours (Assay Protocol 2); assay type: cell-based; parameters: A suspension of MV4-11 cells (ATCC CRL-9591) was prepared; host or cells: MV4-11; settings: Table 2, BRD9 degradation (IF), Assay Protocol 2, MV4-11 cells; for Dmax: read-out: Assay 2 DCmax; for DC50: read-out: Assay 2 DC50
T1 sequence (Q9H8M2 1-597): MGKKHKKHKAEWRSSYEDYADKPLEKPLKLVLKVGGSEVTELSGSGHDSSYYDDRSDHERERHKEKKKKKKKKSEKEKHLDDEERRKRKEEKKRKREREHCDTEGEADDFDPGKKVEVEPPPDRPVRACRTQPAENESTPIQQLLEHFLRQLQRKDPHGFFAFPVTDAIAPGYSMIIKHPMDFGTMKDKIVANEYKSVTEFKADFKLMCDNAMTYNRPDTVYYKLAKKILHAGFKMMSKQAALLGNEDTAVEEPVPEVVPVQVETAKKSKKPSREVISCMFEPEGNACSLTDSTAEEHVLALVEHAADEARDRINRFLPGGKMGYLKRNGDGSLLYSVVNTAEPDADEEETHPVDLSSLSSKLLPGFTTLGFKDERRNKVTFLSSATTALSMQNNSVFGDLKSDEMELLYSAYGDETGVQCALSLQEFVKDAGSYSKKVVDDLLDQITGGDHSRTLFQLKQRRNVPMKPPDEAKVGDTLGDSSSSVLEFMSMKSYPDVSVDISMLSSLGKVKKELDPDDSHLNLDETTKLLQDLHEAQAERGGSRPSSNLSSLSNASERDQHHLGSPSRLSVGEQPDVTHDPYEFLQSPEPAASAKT
How it was run: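 MV4-11 cells treated with compound 24 h at 37° C., then fixed, permeabilised and immunostained for BRD9 (anti-BRD9 E4Q3F, Alexa 647 secondary, Hoechst counterstain). High-content imaging quantified nuclear BRD9 signal; % BRD9 remaining normalised to DMSO and 100 nM CFT-8634 controls.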

BRD9 [2] = biological target: T1, BRD9; experiment: BRD9 degradation, HiBiT-BRD9 KI HEK293 (LgBiT) cells, NanoGlo Lytic Endpoint assay (Assay Protocol 1); assay type: cell-based
How it was run: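 HiBiT-tagged BRD9 knock-in HEK293 (LgBiT) cells exposed to compounds for 6 h at 37 °C, 5% CO2. Residual BRD9 measured by HiBiT lytic luminescence. % BRD9 remaining normalised to DMSO-treated cells (high) and no-cell wells (low).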

[3] = HEK293; Table 2; BRD9 degradation, Assay Protocol 1; 1 μM compound at 6 h of treatment; read-out: Assay 1 Dmax
[4] = Table 2; BRD9 degradation, Assay Protocol 1; 6 h of treatment; read-out: Assay 1 DC50

Compound	Dmax (BRD9 [1]; MV4-11, 24 h) [%]	Dmax at 1 µM (BRD9 [2]; [3]) [%]	DC50 (BRD9 [2]; [4]) [nM]	DC50 (BRD9 [1]) [nM]	Dmax (BRD9 [1]; 24 h) [%]	DC50 (BRD9 [2]; read-out: Assay 1 DC50; Table 2; BRD9 degradation, Assay Protocol 1; 6 h of treatment) [nM]
COc1cc(-c2cn(C)c(=O)c3cnccc23)cc(OC)c1CN1CCC(Oc2cccc3c2CCN(C(=O)/C(C#N)=C/C(C)(C)C)C3C)CC1 (mixture of isomers) [Compound A28, (E/Z)-2-(5-((1-(2,6-dimethoxy-4-(2-methyl-1-oxo-1,2-dihydro-2,7-naphthyridin-4-yl)benzyl)piperidin-4-yl)oxy)-1-methyl-1,2,3,4-tetrahydroisoquinoline-2-carbonyl)-4,4-dimethylpent-2-enenitrile]	40 to 70	40 to 70	1.25 to 10			
COc1cc(-c2cn(C)c(=O)c3cnccc23)cc(OC)c1CN1CCCN(Cc2cccc3c2CCN(C(=O)/C(C#N)=C/C(C)(C)C)C3C)CC1 (mixture of isomers) [Compound A31, (E/Z)-2-(5-((4-(2,6-dimethoxy-4-(2-methyl-1-oxo-1,2-dihydro-2,7-naphthyridin-4-yl)benzyl)-1,4-diazepan-1-yl)methyl)-1-methyl-1,2,3,4-tetrahydroisoquinoline-2-carbonyl)-4,4-dimethylpent-2-enenitrile]	40 to 70	70 to 75	1.25 to 10	1.25 to 10		
COc1cc(-c2cn(C)c(=O)c3cnccc23)cc(OC)c1CN(C)CCN(C)Cc1cccc2c1CCN(C(=O)/C(C#N)=C/C(C)(C)C)C2C (mixture of isomers) [Compound A32, (E/Z)-2-(5-(((2-((2,6-dimethoxy-4-(2-methyl-1-oxo-1,2-dihydro-2,7-naphthyridin-4-yl)benzyl)(methyl)amino)ethyl)(methyl)amino)methyl)-1-methyl-1,2,3,4-tetrahydroisoquinoline-2-carbonyl)-4,4-dimethylpent-2-enenitrile]	40 to 70	40 to 70	10 to 25	< 1.25		
COc1cc(-c2cn(C)c(=O)c3cnccc23)cc(OC)c1CN1CC2CC(C1)N2Cc1cccc2c1CCN(C(=O)/C(C#N)=C/C(C)(C)C)C2C (mixture of isomers) [Compound A41, (E/Z)-2-(5-((3-(2,6-dimethoxy-4-(2-methyl-1-oxo-1,2-dihydro-2,7-naphthyridin-4-yl)benzyl)-3,6-diazabicyclo[3.1.1]heptan-6-yl)methyl)-1-methyl-1,2,3,4-tetrahydroisoquinoline-2-carbonyl)-4,4-dimethylpent-2-enenitrile]		70 to 75		1.25 to 10	70 to 75	1.25 to 10
COc1cc(-c2cn(C)c(=O)c3cnccc23)cc(OC)c1CN1CCN(Cc2cccc3c2CCN(C(=O)/C(C#N)=C/c2ncccc2F)C3C)CC1 (mixture of isomers) [Compound A42, (E/Z)-2-[5-[[4-[[2,6-dimethoxy-4-(2-methyl-1-oxo-2,7-naphthyridin-4-yl)phenyl]methyl]piperazin-1-yl]methyl]-1-methyl-3,4-dihydro-1H-isoquinoline-2-carbonyl]-3-(3-fluoro-2-pyridyl)prop-2-enenitrile]	40 to 70	40 to 70	10 to 25	< 1.25		
COc1cc(-c2cn(C)c(=O)c(C)c2C)cc(OC)c1CN1CCN(Cc2cccc3c2CCN(C(=O)/C(C#N)=C/C(C)C)C3C)CC1 (mixture of isomers) [Compound A43]	40 to 70	70 to 75	1.25 to 10	< 1.25		
COc1cc(-c2cn(C)c(=O)c3cnccc23)cc(OC)c1CN1CC2CCC(C1)N2Cc1cccc2c1CCN(C(=O)/C(C#N)=C/C(C)(C)C)C2C (mixture of isomers) [Compound A48, (E/Z)-2-(5-((3-(2,6-dimethoxy-4-(2-methyl-1-oxo-1,2-dihydro-2,7-naphthyridin-4-yl)benzyl)-3,8-diazabicyclo[3.2.1]octan-8-yl)methyl)-1-methyl-1,2,3,4-tetrahydroisoquinoline-2-carbonyl)-4,4-dimethylpent-2-enenitrile]	40 to 70	> 75	1.25 to 10	< 1.25		
COc1cc(-c2cn(C)c(=O)c(C)c2C)cc(OC)c1CN1CCN(Cc2cccc3c2CCN(C(=O)/C(C#N)=C/C2(C)COC2)C3C)CC1 (mixture of isomers) [Compound A51, (E/Z)-2-[5-[[4-[[2,6-dimethoxy-4-(1,4,5-trimethyl-6-oxo-3-pyridyl)phenyl]methyl]piperazin-1-yl]methyl]-1-methyl-3,4-dihydro-1H-isoquinoline-2-carbonyl]-3-(3-methyloxetan-3-yl)prop-2-enenitrile]	40 to 70	40 to 70	1.25 to 10	< 1.25		
COc1cc(-c2cn(C)c(=O)c(C)c2C)cc(OC)c1CN1CCN(Cc2cccc3c2CCN(C(=O)/C(C#N)=C/c2cccc(C(F)(F)F)n2)C3C)CC1 (mixture of isomers) [Compound A53, (E/Z)-2-(5-((4-(2,6-dimethoxy-4-(1,4,5-trimethyl-6-oxo-1,6-dihydropyridin-3-yl)benzyl)piperazin-1-yl)methyl)-1-methyl-1,2,3,4-tetrahydroisoquinoline-2-carbonyl)-3-(6-(trifluoromethyl)pyridin-2-yl)acrylonitrile]	40 to 70	40 to 70	1.25 to 10			
COc1cc(-c2cn(C)c(=O)c3cnccc23)cc(OC)c1CN(C)Cc1ccc2c(c1)CCN(C(=O)/C(C#N)=C/c1cccc(Br)n1)C2C (mixture of isomers) [Compound A66]	> 75	40 to 70	< 1.25	< 1.25		
COc1cccc(/C=C(\C#N)C(=O)N2CCc3c(CN4CCN(Cc5c(OC)cc(-c6cn(C)c(=O)c(C)c6C)cc5OC)CC4)cccc3C2C)n1 (mixture of isomers) [Compound A67, (E/Z)-2-(5-((4-(2,6-dimethoxy-4-(1,4,5-trimethyl-6-oxo-1,6-dihydropyridin-3-yl)benzyl)piperazin-1-yl)methyl)-1-methyl-1,2,3,4-tetrahydroisoquinoline-2-carbonyl)-3-(6-methoxypyridin-2-yl)acrylonitrile]	40 to 70	40 to 70	1.25 to 10			
COc1cc(-c2cn(C)c(=O)c(C)c2C)cc(OC)c1CN1CC2CC1CN2Cc1cccc2c1CCN(C(=O)/C(C#N)=C/C(C)(C)C)C2C (mixture of isomers) [Compound A70, (E/Z)-2-(5-((5-(2,6-dimethoxy-4-(1,4,5-trimethyl-6-oxo-1,6-dihydropyridin-3-yl)benzyl)-2,5-diazabicyclo[2.2.1]heptan-2-yl)methyl)-1-methyl-1,2,3,4-tetrahydroisoquinoline-2-carbonyl)-4,4-dimethylpent-2-enenitrile]	70 to 75	40 to 70	10 to 25	< 1.25		
COc1cc(-c2cn(C)c(=O)c3cc(C(=O)NCCOc4ccc5c(c4)CCN(C(=O)/C(C#N)=C/c4nccs4)C5C)sc23)cc(OC)c1CN(C)C (mixture of isomers) [Compound A74]	40 to 70	40 to 70	25 to 300	1.25 to 10		
COc1cc(-c2cn(C)c(=O)c3cc(C(=O)NCCCCCOc4ccc5c(c4)CCN(C(=O)/C(C#N)=C/c4nccs4)C5C)sc23)cc(OC)c1CN(C)C (mixture of isomers) [Compound A75, (E/Z)—N-(5-((2-(2-cyano-3-(thiazol-2-yl)acryloyl)-1-methyl-1,2,3,4-tetrahydroisoquinolin-6-yl)oxy)pentyl)-7-(4-((dimethylamino)methyl)-3,5-dimethoxyphenyl)-5-methyl-4-oxo-4,5-dihydrothieno[3,2-c]pyridine-2-carboxamide]	> 75	40 to 70	25 to 300	1.25 to 10		
COc1cc(-c2cn(C)c(=O)c3cc(C(=O)NCCCCCOc4cccc(C5CCCN5C(=O)/C(C#N)=C/c5nccs5)c4)sc23)cc(OC)c1CN(C)C (mixture of isomers) [Compound A76, (E/Z)—N-(5-(3-(1-(2-cyano-3-(thiazol-2-yl)acryloyl)pyrrolidin-2-yl)phenoxy)pentyl)-7-(4-((dimethylamino)methyl)-3,5-dimethoxyphenyl)-5-methyl-4-oxo-4,5-dihydrothieno[3,2-c]pyridine-2-carboxamide]	70 to 75	40 to 70	25 to 300	< 1.25		
